Test results as given in ChEMBL document CHEMBL1157236, “A reassignment of (-)-mycothiazole and the isolation of a related diol” (2006).

Legend:
[1] = test system: ACHN; experiment: Growth inhibition of human ACHN cells; format: functional
[2] = test system: SK-MEL-5; experiment: Growth inhibition of human SK-MEL-5 cells; format: functional
[3] = test system: CAKI-1; experiment: Growth inhibition of human CAKI1 cells; format: functional
[4] = Growth inhibition of human OVACR8 cells; format: functional
[5] = test system: SK-OV-3; experiment: Growth inhibition of human SK-OV-3 cells; format: functional
[6] = test system: HOP-92; experiment: Growth inhibition of human HOP92 cells; format: functional
[7] = test system: SW-620; experiment: Growth inhibition of human SW620 cells; format: functional
[8] = test system: EKVX; experiment: Growth inhibition of human EKVX cells; format: functional
[9] = test system: IGROV-1; experiment: Growth inhibition of human IGROV1 cells; format: functional
[10] = Growth inhibition of human RXF631 cells; format: functional; details: RXF 631, read-out: pGI50 (converted)
[11] = test system: COLO 205; experiment: Growth inhibition of human COLO205 cells; format: functional
[12] = test system: LOX IMVI; experiment: Growth inhibition of human LOX IMVI cells; format: functional
[13] = test system: MOLT-4; experiment: Growth inhibition of human MOLT4 cells; format: functional
[14] = test system: SF-539; experiment: Growth inhibition of human SF539 cells; format: functional; details: SF-539, read-out: pGI50 (converted)
[15] = test system: A549; experiment: Growth inhibition of human A549 cells; format: functional
[16] = Growth inhibition of human […] cells; format: functional
[17] = test system: DMS-273; experiment: Growth inhibition of human DMS273 cells; format: functional
[18] = test system: XF498; experiment: Growth inhibition of human XF498 cells; format: functional
[19] = test system: M19-MEL; experiment: Growth inhibition of human M19-MEL cells; format: functional
[20] = test system: RXF 393; experiment: Growth inhibition of human […] cells; format: functional
[21] = test system: BT-549; experiment: Growth inhibition of human BT549 cells; format: functional
[22] = Growth inhibition of human OVACR5 cells; format: functional; details: OVACR5, read-out: pGI50 (converted)
[23] = test system: T47D; experiment: Growth inhibition of human T47D cells; format: functional; details: read-out: pGI50 (converted)
[24] = test system: HCC 2998; experiment: Growth inhibition of human HCC2998 cells; format: functional; details: HCC 2998, read-out: pGI50 (converted)
[25] = test system: SR; experiment: Growth inhibition of human SR cells; format: functional
[26] = Growth inhibition of human LXFL529 cells; format: functional; details: LXFL 529
[27] = test system: SN12C; experiment: Growth inhibition of human SN12C cells; format: functional; details: read-out: pGI50 (converted)
[28] = test system: NCI-H460; experiment: Growth inhibition of human NCI-H460 cells; format: functional
[29] = test system: SK-MEL-2; experiment: Growth inhibition of human SK-MEL-2 cells; format: functional; details: SK-MEL-2, read-out: pGI50 (converted)
[30] = test system: U-251; experiment: Growth inhibition of human U251 cells; format: functional
[31] = test system: DLD-1; experiment: Growth inhibition of human DLD1 cells; format: functional
[32] = test system: NCI-H322M; experiment: Growth inhibition of human NCI-H322M cells; format: functional
[33] = test system: CCRF-CEM; experiment: Growth inhibition of human CCRF-CEM cells; format: functional
[34] = test system: UACC-62; experiment: Growth inhibition of human UACC62 cells; format: functional
[35] = test system: UACC-257; experiment: Growth inhibition of human UACC257 cells; format: functional
[36] = test system: SF-268; experiment: Growth inhibition of human SF268 cells; format: functional
[37] = test system: SK-MEL-28; experiment: Growth inhibition of human SK-MEL-28 cells; format: functional
[38] = test system: KM-20L2; experiment: Growth inhibition of human KM20L2 cells; format: functional
[39] = test system: MDA-MB-435; experiment: Growth inhibition of human MDA-MB-435 cells; format: functional
[40] = test system: SNB-19; experiment: Growth inhibition of human SNB19 cells; format: functional; details: SNB-19, read-out: pGI50 (converted)
[41] = test system: HCT-116; experiment: Growth inhibition of human HCT116 cells; format: functional
[42] = test system: HT-29; experiment: Growth inhibition of human HT29 cells; format: functional
[43] = test system: NCI-H226; experiment: Growth inhibition of human NCI-H226 cells; format: functional; details: NCI-H226, read-out: pGI50 (converted)
[44] = test system: HCT-15; experiment: Growth inhibition of human HCT15 cells; format: functional
[45] = test system: TK-10; experiment: Growth inhibition of human TK10 cells; format: functional; details: TK-10, read-out: pGI50 (converted)
[46] = test system: KM12; experiment: Growth inhibition of human KM12 cells; format: functional
[47] = test system: SNB-75; experiment: Growth inhibition of human SNB75 cells; format: functional
[48] = Growth inhibition of human OVACR4 cells; format: functional
[49] = test system: M14; experiment: Growth inhibition of human M14 cells; format: functional
[50] = test system: SF-295; experiment: Growth inhibition of human SF295 cells; format: functional
[51] = test system: 786-0; experiment: Growth inhibition of human 786-0 cells; format: functional; details: 786-0, read-out: pGI50 (converted)
[52] = Growth inhibition of human OVACR3 cells; format: functional
[53] = test system: Hs-578T; experiment: Growth inhibition of human HS578T cells; format: functional; details: read-out: pGI50 (converted)
[54] = test system: MDA-N; experiment: Growth inhibition of human MDA-N cells; format: functional
[55] = test system: K562; experiment: Growth inhibition of human K562 cells; format: functional
[56] = test system: UO-31; experiment: Growth inhibition of human UO31 cells; format: functional
[57] = test system: A498; experiment: Growth inhibition of human A498 cells; format: functional
[58] = test system: PC-3; experiment: Growth inhibition of human PC3 cells; format: functional; details: PC-3, read-out: pGI50 (converted)
[59] = test system: HOP-62; experiment: Growth inhibition of human HOP62 cells; format: functional; details: HOP-62, read-out: pGI50 (converted)
[60] = test system: DU-145; experiment: Growth inhibition of human DU145 cells; format: functional; details: DU-145, read-out: pGI50 (converted)
[61] = test system: NCI-H23; experiment: Growth inhibition of human NCI-H23 cells; format: functional
[62] = test system: DMS-114; experiment: Growth inhibition of human DMS114 cells; format: functional
[63] = test system: NCI-H522; experiment: Growth inhibition of human NCI-H522 cells; format: functional
[64] = test system: NCI/ADR-RES; experiment: Growth inhibition of human NCI/ADR-RES cells; format: functional
[65] = Growth inhibition of human HL60(TB) cells; format: functional, HL-60(TB); details: HL-60
[66] = test system: MCF7; experiment: Growth inhibition of human MCF7 cells; format: functional; details: MCF7, read-out: pGI50 (converted)
[67] = test system: Malme-3M; experiment: Growth inhibition of human MALME3M cells; format: functional; details: read-out: pGI50 (converted)
[68] = test system: L1210; experiment: Selectivity for mouse C38 cells over mouse L1210 cells; format: functional

**Q.** Which GI50 [1] does the source give for `C=CC/C=C\Cc1csc(C(C)(C)[C@H](O)C/C=C\C(=C)CCNC(=O)OC)n1` [MYCOTHIAZOLE] here?
**A.** 50.1 µM

**Q.** What about the GI50 [2] of the same molecule?
**A.** 1.26 µM

**Q.** And the GI50 [3]?
**A.** 63.1 µM

**Q.** What about the GI50 [4] of the same molecule?
**A.** 79.4 µM

**Q.** And the GI50 [5]?
**A.** 79.4 µM

**Q.** And the GI50 [6]?
**A.** 20 µM

**Q.** What about the GI50 [7] of the same molecule?
**A.** 25.1 µM

**Q.** And the GI50 [8]?
**A.** 25.1 µM

**Q.** What about the GI50 [9] of the same molecule?
**A.** 31.6 µM

**Q.** What about the GI50 [10] of the same molecule?
**A.** > 100 µM

**Q.** And the GI50 [11]?
**A.** 63.1 µM

**Q.** What about the GI50 [12] of the same molecule?
**A.** 39.8 µM

**Q.** And the GI50 [13]?
**A.** 39.8 µM

**Q.** And the GI50 [14]?
**A.** > 100 µM

**Q.** And the GI50 [15]?
**A.** 39.8 µM

**Q.** And the GI50 [16]?
**A.** 31.6 µM

**Q.** What about the GI50 [17] of the same molecule?
**A.** 3.16 µM

**Q.** What about the GI50 [18] of the same molecule?
**A.** 50.1 µM

**Q.** And the GI50 [19]?
**A.** 25.1 µM

**Q.** And the GI50 [20]?
**A.** 63.1 µM

**Q.** And the GI50 [21]?
**A.** 3.16 µM

**Q.** What about the GI50 [22] of the same molecule?
**A.** > 100 µM

**Q.** And the GI50 [23]?
**A.** > 100 µM

**Q.** And the GI50 [24]?
**A.** > 100 µM

**Q.** What about the GI50 [25] of the same molecule?
**A.** 0.501 µM

**Q.** What about the GI50 [26] of the same molecule?
**A.** 20 µM

**Q.** And the GI50 [27]?
**A.** > 100 µM

**Q.** And the GI50 [28]?
**A.** 31.6 µM

**Q.** What about the GI50 [29] of the same molecule?
**A.** > 100 µM

**Q.** And the GI50 [30]?
**A.** 79.4 µM

**Q.** What about the GI50 [31] of the same molecule?
**A.** 79.4 µM

**Q.** And the GI50 [32]?
**A.** 15.8 µM

**Q.** And the GI50 [33]?
**A.** 31.6 µM

**Q.** And the GI50 [34]?
**A.** 39.8 µM

**Q.** What about the GI50 [35] of the same molecule?
**A.** 1.58 µM

**Q.** And the GI50 [36]?
**A.** 79.4 µM

**Q.** What about the GI50 [37] of the same molecule?
**A.** 79.4 µM

**Q.** And the GI50 [38]?
**A.** 50.1 µM

**Q.** And the GI50 [39]?
**A.** 50.1 µM

**Q.** And the GI50 [40]?
**A.** > 100 µM

**Q.** And the GI50 [41]?
**A.** 0.631 µM

**Q.** And the GI50 [42]?
**A.** 50.1 µM

**Q.** And the GI50 [43]?
**A.** > 100 µM

**Q.** What about the GI50 [44] of the same molecule?
**A.** 39.8 µM

**Q.** And the GI50 [45]?
**A.** > 100 µM

**Q.** What about the GI50 [46] of the same molecule?
**A.** 63.1 µM

**Q.** What about the GI50 [47] of the same molecule?
**A.** 39.8 µM

**Q.** What about the GI50 [48] of the same molecule?
**A.** 63.1 µM

**Q.** What about the GI50 [49] of the same molecule?
**A.** 39.8 µM

**Q.** What about the GI50 [50] of the same molecule?
**A.** 1.26 µM

**Q.** What about the GI50 [51] of the same molecule?
**A.** > 100 µM

**Q.** And the GI50 [52]?
**A.** 25.1 µM

**Q.** And the GI50 [53]?
**A.** > 100 µM

**Q.** And the GI50 [54]?
**A.** 50.1 µM

**Q.** What about the GI50 [55] of the same molecule?
**A.** 0.794 µM

**Q.** What about the GI50 [56] of the same molecule?
**A.** 79.4 µM

**Q.** And the GI50 [57]?
**A.** 63.1 µM

**Q.** And the GI50 [58]?
**A.** > 100 µM

**Q.** And the GI50 [59]?
**A.** > 100 µM

**Q.** What about the GI50 [60] of the same molecule?
**A.** > 100 µM

**Q.** What about the GI50 [61] of the same molecule?
**A.** 0.251 µM

**Q.** And the GI50 [62]?
**A.** 0.0126 µM

**Q.** And the GI50 [63]?
**A.** 20 µM

**Q.** And the GI50 [64]?
**A.** 79.4 µM

**Q.** What about the GI50 [65] of the same molecule?
**A.** 10 µM

**Q.** What about the GI50 [66] of the same molecule?
**A.** > 100 µM

**Q.** What about the GI50 [67] of the same molecule?
**A.** > 100 µM

**Q.** What about the “Selectivity Index” value [68] of the same molecule?
**A.** 3
